Patent EP1285920A1, “C10 Ester sustituted taxanes as antitumor agents” (Florida State University Research Foundation, Inc., priority 2001, dated 2003)

test system: HCT116; assay: In Vitro cytotoxicity measured by the cell colony formation assay; format: cell-based, human; conditions: HCT116 colony formation; 72 h with drug, colonies counted after 7 days; ID50 = concentration producing 50% inhibition of colony formation; read-out: IN VITRO ID 50 HCT116
Procedure, shortened: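 Four hundred cells per dish in McCoy's 5a medium with 10% FBS were allowed to attach for 5 h at 37 °C. They were then exposed to compound for 72 h at 37 °C, added as a 10× stock made fresh in medium. After HBSS rinsing and refeeding, colonies were counted after 7 days.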

`CC=CC(=O)OC1C(=O)C2(C)C(O)CC3OCC3(OC(C)=O)C2C(OC(=O)c2ccccc2)C2(O)CC(OC(=O)C(O)C(NC(=O)OC(C)(C)C)c3cccnc3)C(C)=C1C2(C)C` (centres unmarked) [Compound 2353] and `CC=CC(=O)OC1C(=O)C2(C)C(O)CC3OCC3(OC(C)=O)C2C(OC(=O)c2ccccc2)C2(O)CC(OC(=O)C(O)C(NC(=O)OC(C)(C)C)c3ccc([N+](=O)[O-])cc3)C(C)=C1C2(C)C` (centres unmarked) [Compound 2439] cannot be ordered by IC50: under 10 nM for the first, under 10 nM for the second.

`CC=CC(=O)OC1C(=O)C2(C)C(O)CC3OCC3(OC(C)=O)C2C(OC(=O)c2ccccc2)C2(O)CC(OC(=O)C(O)C(C=C(C)C)NC(=O)OC(C)(C)C)C(C)=C1C2(C)C` (centres unmarked) [Compound 2332] and `CCCC(=O)N[C@@H](c1cccs1)[C@@H](O)C(=O)O[C@H]1C[C@@]2(O)[C@@H](OC(=O)c3ccccc3)[C@@H]3[C@]4(OC(C)=O)CO[C@@H]4C[C@H](O)[C@@]3(C)C(=O)[C@H](OC(=O)CCC)C(=C1C)C2(C)C` [Compound 3148] cannot be ordered by IC50: under 1 nM for the first, under 1 nM for the second.

same assay, conditions: Homo sapiens, HCT-116; read-out: IN VITRO ID 50 HCT116

`CCC(=O)O[C@H]1C(=O)[C@@]2(C)[C@H]([C@H](OC(=O)c3ccccc3)[C@]3(O)C[C@H](OC(=O)[C@H](O)[C@@H](NC(=O)OC(C)(C)C)c4cccnc4)C(C)=C1C3(C)C)[C@]1(OC(C)=O)CO[C@@H]1C[C@@H]2O` [Compound 0517] and `CCCC(=O)O[C@H]1C(=O)[C@@]2(C)[C@H]([C@H](OC(=O)c3ccccc3)[C@]3(O)C[C@H](OC(=O)[C@H](O)[C@@H](NC(=O)OC(C)(C)C)c4cccnc4)C(C)=C1C3(C)C)[C@]1(OC(C)=O)CO[C@@H]1C[C@@H]2O` [Compound 0966] cannot be ordered by IC50: under 10 nM for the first, under 10 nM for the second.

`CC(=O)O[C@@]12CO[C@@H]1C[C@H](O)[C@@]1(C)C(=O)[C@H](OC(=O)C3CC3)C3=C(C)[C@@H](OC(=O)[C@H](O)[C@H](C=C(C)C)NC(=O)c4ccccc4)C[C@@](O)([C@@H](OC(=O)c4ccccc4)[C@H]21)C3(C)C` [Compound 0890] and `CC(=O)O[C@@]12CO[C@@H]1C[C@H](O)[C@@]1(C)C(=O)[C@H](OC(=O)C3CC3)C3=C(C)[C@@H](OC(=O)[C@H](O)[C@@H](NC(=O)c4ccccc4)c4cccs4)C[C@@](O)([C@@H](OC(=O)c4ccccc4)[C@H]21)C3(C)C` [Compound 0919] cannot be ordered by IC50: under 1 nM for the first, under 1 nM for the second.

`CC(=O)OC12COC1CC(O)C1(C)C(=O)C(OC(=O)C(C)C)C3=C(C)C(OC(=O)C(O)C(NC(=O)OC(C)(C)C)c4ccccn4)CC(O)(C(OC(=O)c4ccccc4)C21)C3(C)C` (centres unmarked) [Compound 2238] and `CC(=O)O[C@@]12CO[C@@H]1C[C@H](O)[C@@]1(C)C(=O)[C@H](OC(=O)C=C(C)C)C3=C(C)[C@@H](OC(=O)[C@H](O)[C@@H](NC(=O)OC(C)(C)C)c4ccccn4)C[C@@](O)([C@@H](OC(=O)c4ccccc4)[C@H]21)C3(C)C` [Compound 2464] cannot be ordered by IC50: under 1 nM for the first, under 1 nM for the second.

`CC(=O)OC12COC1CC(O)C1(C)C(=O)C(OC(=O)c3ccco3)C3=C(C)C(OC(=O)C(O)C(NC(=O)OC(C)(C)C)c4ccccc4)CC(O)(C(OC(=O)c4ccccc4)C21)C3(C)C` (centres unmarked) [Compound 2212] and `CC(=O)O[C@@]12CO[C@@H]1C[C@H](O)[C@@]1(C)C(=O)[C@H](OC(=O)c3ccco3)C3=C(C)[C@@H](OC(=O)[C@H](O)[C@@H](NC(=O)OC(C)(C)C)c4ccc([N+](=O)[O-])cc4)C[C@@](O)([C@@H](OC(=O)c4ccccc4)[C@H]21)C3(C)C` [Compound 2202] cannot be ordered by IC50: under 10 nM for the first, under 1 nM for the second.

`CC(=O)O[C@@]12CO[C@@H]1C[C@H](O)[C@@]1(C)C(=O)[C@H](OC(=O)c3ccco3)C3=C(C)[C@@H](OC(=O)[C@H](O)[C@@H](NC(=O)OC(C)(C)C)C4CCC4)C[C@@](O)([C@@H](OC(=O)c4ccccc4)[C@H]21)C3(C)C` [Compound 2199] and `CCC(=O)O[C@H]1C(=O)[C@@]2(C)[C@H]([C@H](OC(=O)c3ccccc3)[C@]3(O)C[C@H](OC(=O)[C@H](O)[C@@H](NC(=O)OC(C)(C)C)C4CCC4)C(C)=C1C3(C)C)[C@]1(OC(C)=O)CO[C@@H]1C[C@@H]2O` [Compound 0596] cannot be ordered by IC50: under 10 nM for the first, under 10 nM for the second.

`CCC(=O)O[C@H]1C(=O)[C@@]2(C)[C@H]([C@H](OC(=O)c3ccccc3)[C@]3(O)C[C@H](OC(=O)[C@H](O)[C@@H](NC(=O)c4ccncc4)c4cccs4)C(C)=C1C3(C)C)[C@]1(OC(C)=O)CO[C@@H]1C[C@@H]2O` [Compound 4207] and `CCC(=O)O[C@H]1C(=O)[C@@]2(C)[C@H]([C@H](OC(=O)c3ccccc3)[C@]3(O)C[C@H](OC(=O)[C@H](O)[C@@H](NC(=O)c4ccco4)c4cccs4)C(C)=C1C3(C)C)[C@]1(OC(C)=O)CO[C@@H]1C[C@@H]2O` [Compound 3053] cannot be ordered by IC50: under 10 nM for the first, under 1 nM for the second.

`CCCC(=O)O[C@H]1C(=O)[C@@]2(C)[C@H]([C@H](OC(=O)c3ccccc3)[C@]3(O)C[C@H](OC(=O)[C@H](O)[C@@H](NC(=O)c4cccs4)c4ccco4)C(C)=C1C3(C)C)[C@]1(OC(C)=O)CO[C@@H]1C[C@@H]2O` [Compound 3656] and `CCCC(=O)O[C@H]1C(=O)[C@@]2(C)[C@H]([C@H](OC(=O)c3ccccc3)[C@]3(O)C[C@H](OC(=O)[C@H](O)[C@@H](NC(=O)c4ccco4)c4cccs4)C(C)=C1C3(C)C)[C@]1(OC(C)=O)CO[C@@H]1C[C@@H]2O` [Compound 3352] cannot be ordered by IC50: under 1 nM for the first, under 1 nM for the second.

`C/C=C/C(=O)N[C@@H](c1ccco1)[C@@H](O)C(=O)O[C@H]1C[C@@]2(O)[C@@H](OC(=O)c3ccccc3)[C@@H]3[C@]4(OC(C)=O)CO[C@@H]4C[C@H](O)[C@@]3(C)C(=O)[C@H](OC(=O)CC)C(=C1C)C2(C)C` [Compound 3982] and `C/C=C/C(=O)N[C@@H](c1ccoc1)[C@@H](O)C(=O)O[C@H]1C[C@@]2(O)[C@@H](OC(=O)c3ccccc3)[C@@H]3[C@]4(OC(C)=O)CO[C@@H]4C[C@H](O)[C@@]3(C)C(=O)[C@H](OC(=O)CCC)C(=C1C)C2(C)C` [Compound 4919] cannot be ordered by IC50: under 1 nM for the first, under 1 nM for the second.

`CC=CC(=O)NC(c1ccoc1)C(O)C(=O)OC1CC2(O)C(OC(=O)c3ccccc3)C3C4(OC(C)=O)COC4CC(O)C3(C)C(=O)C(OC(=O)C3CC3)C(=C1C)C2(C)C` (centres unmarked) [Compound 4944] and `CC(=O)O[C@@]12CO[C@@H]1C[C@H](O)[C@@]1(C)C(=O)[C@H](OC(=O)C3CC3)C3=C(C)[C@@H](OC(=O)[C@H](O)[C@@H](NC(=O)OCC(C)C)c4ccoc4)C[C@@](O)([C@@H](OC(=O)c4ccccc4)[C@H]21)C3(C)C` [Compound 4665] cannot be ordered by IC50: under 1 nM for the first, under 10 nM for the second.

`CC(=O)O[C@@]12CO[C@@H]1C[C@H](O)[C@@]1(C)C(=O)[C@H](OC(=O)c3cccs3)C3=C(C)[C@@H](OC(=O)[C@H](O)[C@@H](NC(=O)OC(C)(C)C)c4ccncc4)C[C@@](O)([C@@H](OC(=O)c4ccccc4)[C@H]21)C3(C)C` [Compound 1954] and `CC(=O)O[C@@]12CO[C@@H]1C[C@H](O)[C@@]1(C)C(=O)[C@H](OC(=O)C3CC3)C3=C(C)[C@@H](OC(=O)[C@H](O)[C@@H](NC(=O)OC(C)(C)C)c4ccncc4)C[C@@](O)([C@@H](OC(=O)c4ccccc4)[C@H]21)C3(C)C` [Compound 2813] cannot be ordered by IC50: under 1 nM for the first, under 1 nM for the second.

`CCC(=O)O[C@H]1C(=O)[C@@]2(C)[C@H]([C@H](OC(=O)c3ccccc3)[C@]3(O)C[C@H](OC(=O)[C@H](O)[C@@H](NC(=O)OC(C)(C)C)c4ccoc4)C(C)=C1C3(C)C)[C@]1(OC(C)=O)CO[C@@H]1C[C@@H]2O` [Compound 0549] and `CC(=O)O[C@@]12CO[C@@H]1C[C@H](O)[C@@]1(C)C(=O)[C@H](OC(=O)C=C(C)C)C3=C(C)[C@@H](OC(=O)[C@H](O)[C@@H](NC(=O)OC(C)(C)C)c4ccoc4)C[C@@](O)([C@@H](OC(=O)c4ccccc4)[C@H]21)C3(C)C` [Compound 2499] cannot be ordered by IC50: under 10 nM for the first, under 1 nM for the second.

`CCC(=O)O[C@H]1C(=O)[C@@]2(C)[C@H]([C@H](OC(=O)c3ccccc3)[C@]3(O)C[C@H](OC(=O)[C@H](O)[C@@H](NC(=O)C=C(C)C)c4cccs4)C(C)=C1C3(C)C)[C@]1(OC(C)=O)CO[C@@H]1C[C@@H]2O` [Compound 4335] and `CCCC(=O)O[C@H]1C(=O)[C@@]2(C)[C@H]([C@H](OC(=O)c3ccccc3)[C@]3(O)C[C@H](OC(=O)[C@H](O)[C@@H](NC(=O)C=C(C)C)c4cccs4)C(C)=C1C3(C)C)[C@]1(OC(C)=O)CO[C@@H]1C[C@@H]2O` [Compound 4344] cannot be ordered by IC50: under 1 nM for the first, under 1 nM for the second.

`CCC(=O)OC1C(=O)C2(C)C(O)CC3OCC3(OC(C)=O)C2C(OC(=O)c2ccccc2)C2(O)CC(OC(=O)C(O)C(C=C(C)C)NC(=O)OCC(C)C)C(C)=C1C2(C)C` (centres unmarked) [Compound 5065] and `CCCC(=O)O[C@H]1C(=O)[C@@]2(C)[C@H]([C@H](OC(=O)c3ccccc3)[C@]3(O)C[C@H](OC(=O)[C@H](O)[C@@H](NC(=O)OCC(C)C)C4CC4)C(C)=C1C3(C)C)[C@]1(OC(C)=O)CO[C@@H]1C[C@@H]2O` [Compound 4808] cannot be ordered by IC50: under 10 nM for the first, under 10 nM for the second.

`CC(=O)O[C@@]12CO[C@@H]1C[C@H](O)[C@@]1(C)C(=O)[C@H](OC(=O)C=C(C)C)C3=C(C)[C@@H](OC(=O)[C@H](O)[C@@H](NC(=O)OC(C)(C)C)c4cccs4)C[C@@](O)([C@@H](OC(=O)c4ccccc4)[C@H]21)C3(C)C` [Compound 2503] and `CC(=O)O[C@@]12CO[C@@H]1C[C@H](O)[C@@]1(C)C(=O)[C@H](OC(=O)C=C(C)C)C3=C(C)[C@@H](OC(=O)[C@H](O)[C@@H](NC(=O)OC(C)(C)C)c4ccco4)C[C@@](O)([C@@H](OC(=O)c4ccccc4)[C@H]21)C3(C)C` [Compound 2488] cannot be ordered by IC50: under 1 nM for the first, under 1 nM for the second.

`CCC(=O)O[C@H]1C(=O)[C@@]2(C)[C@H]([C@H](OC(=O)c3ccccc3)[C@]3(O)C[C@H](OC(=O)[C@H](O)[C@@H](NC(=O)OC(C)(C)C)C(C)C)C(C)=C1C3(C)C)[C@]1(OC(C)=O)CO[C@@H]1C[C@@H]2O` [Compound 0583] and `CC(=O)O[C@@]12CO[C@@H]1C[C@H](O)[C@@]1(C)C(=O)[C@H](OC(=O)c3cccs3)C3=C(C)[C@@H](OC(=O)[C@H](O)[C@@H](NC(=O)OC(C)(C)C)C(C)C)C[C@@](O)([C@@H](OC(=O)c4ccccc4)[C@H]21)C3(C)C` [Compound 1964] cannot be ordered by IC50: under 10 nM for the first, under 10 nM for the second.

For `CC(=O)O[C@@]12CO[C@@H]1C[C@H](O)[C@@]1(C)C(=O)[C@H](OC(=O)c3ccco3)C3=C(C)[C@@H](OC(=O)[C@H](O)[C@H](C=C(C)C)NC(=O)OC(C)(C)C)C[C@@](O)([C@@H](OC(=O)c4ccccc4)[C@H]21)C3(C)C` [Compound 2101], the IC50 was under 1 nM.
